Data reported in the kinase profiling compilation of Christmann-Franck et al. (2016).

Tests used:
Assay in all cases: radiometric filter-binding kinase assay, Kinase HotSpot
Conditions in all cases: compound 0.5 µM; ATP 10 µM
CSNK1E (human) = CSNK1E (human) (UniProt P49674)
PRKACA (human) = PRKACA (human) (UniProt P17612)
ERBB4 (human) = ERBB4 (human) (UniProt Q15303)
PAK3 (human) = PAK3 (human) (UniProt O75914)
PASK (human) = PASK (human) (UniProt Q96RG2)
PRKD3 (human) = PRKD3 (human) (UniProt O94806)
RPS6KA5 KD2 (human) = RPS6KA5 KD2 (human) (UniProt O75582)
CAMKK2 (human) = CAMKK2 (human) (UniProt Q96RR4)
EPHA8 (human) = EPHA8 (human) (UniProt P29322)
EPHA8 (human), sequence (P29322 whole entry, looked up): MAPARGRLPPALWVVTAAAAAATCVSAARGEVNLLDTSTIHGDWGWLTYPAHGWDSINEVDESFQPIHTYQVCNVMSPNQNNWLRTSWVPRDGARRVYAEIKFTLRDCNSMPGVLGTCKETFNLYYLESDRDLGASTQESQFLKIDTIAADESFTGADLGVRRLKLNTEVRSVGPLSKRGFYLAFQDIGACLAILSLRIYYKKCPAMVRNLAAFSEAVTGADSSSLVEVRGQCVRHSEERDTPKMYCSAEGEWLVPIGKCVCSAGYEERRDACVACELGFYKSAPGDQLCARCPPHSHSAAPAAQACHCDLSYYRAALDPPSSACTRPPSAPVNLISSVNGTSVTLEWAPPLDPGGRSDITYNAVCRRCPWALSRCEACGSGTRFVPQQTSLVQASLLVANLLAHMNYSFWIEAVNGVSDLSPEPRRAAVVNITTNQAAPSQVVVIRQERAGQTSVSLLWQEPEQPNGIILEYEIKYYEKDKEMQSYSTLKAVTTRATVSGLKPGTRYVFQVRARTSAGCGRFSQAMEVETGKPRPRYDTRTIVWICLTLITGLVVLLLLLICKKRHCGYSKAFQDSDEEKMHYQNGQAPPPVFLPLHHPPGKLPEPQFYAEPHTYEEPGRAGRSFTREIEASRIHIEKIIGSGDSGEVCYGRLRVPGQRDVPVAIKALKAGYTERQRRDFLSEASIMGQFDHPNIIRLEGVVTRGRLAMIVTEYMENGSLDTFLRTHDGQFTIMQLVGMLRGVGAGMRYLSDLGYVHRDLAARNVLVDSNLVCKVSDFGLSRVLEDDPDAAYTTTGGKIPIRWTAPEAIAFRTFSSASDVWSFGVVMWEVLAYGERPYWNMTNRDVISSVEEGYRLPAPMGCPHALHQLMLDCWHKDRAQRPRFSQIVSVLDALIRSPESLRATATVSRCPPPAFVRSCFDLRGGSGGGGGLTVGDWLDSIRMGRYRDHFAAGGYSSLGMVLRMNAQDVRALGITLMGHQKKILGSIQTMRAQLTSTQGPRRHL

TSSK2 (human) = TSSK2 (human) (UniProt Q96PF2)
MAPKAPK2 (human) = MAPKAPK2 (human) (UniProt P49137)
MAPKAPK2 (human), sequence (P49137 whole entry, looked up): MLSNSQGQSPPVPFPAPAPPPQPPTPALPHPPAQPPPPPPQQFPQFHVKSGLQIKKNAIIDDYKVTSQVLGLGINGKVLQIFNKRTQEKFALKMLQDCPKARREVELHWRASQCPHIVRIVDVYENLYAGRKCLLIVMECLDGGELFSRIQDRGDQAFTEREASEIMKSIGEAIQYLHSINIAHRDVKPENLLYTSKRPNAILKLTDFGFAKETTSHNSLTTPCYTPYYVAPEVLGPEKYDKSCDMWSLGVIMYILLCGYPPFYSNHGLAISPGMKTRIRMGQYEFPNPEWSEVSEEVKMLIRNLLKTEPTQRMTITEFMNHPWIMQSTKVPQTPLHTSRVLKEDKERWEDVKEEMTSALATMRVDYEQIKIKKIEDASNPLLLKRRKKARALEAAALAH

CSNK1A1 (human) = CSNK1A1 (human) (UniProt P48729)
MAP4K4 (human) = MAP4K4 (human) (UniProt O95819)
PRKCG (human) = PRKCG (human) (UniProt P05129)
DYRK3 (human) = DYRK3 (human) (UniProt O43781)
CSNK2A2 (human) = CSNK2A2 (human) (UniProt P19784)
PDGFRB (human) = PDGFRB (human) (UniProt P09619)
MAP3K7 TAB1 (human) = MAP3K7 TAB1 (human) (UniProt O43318+Q15750)
GRK4 (human) = GRK4 (human) (UniProt P32298)
MYLK2 (human) = MYLK2 (human) (UniProt Q9H1R3)
KDR (human) = KDR (human) (UniProt P35968)
KDR (human), sequence (P35968 whole entry, looked up): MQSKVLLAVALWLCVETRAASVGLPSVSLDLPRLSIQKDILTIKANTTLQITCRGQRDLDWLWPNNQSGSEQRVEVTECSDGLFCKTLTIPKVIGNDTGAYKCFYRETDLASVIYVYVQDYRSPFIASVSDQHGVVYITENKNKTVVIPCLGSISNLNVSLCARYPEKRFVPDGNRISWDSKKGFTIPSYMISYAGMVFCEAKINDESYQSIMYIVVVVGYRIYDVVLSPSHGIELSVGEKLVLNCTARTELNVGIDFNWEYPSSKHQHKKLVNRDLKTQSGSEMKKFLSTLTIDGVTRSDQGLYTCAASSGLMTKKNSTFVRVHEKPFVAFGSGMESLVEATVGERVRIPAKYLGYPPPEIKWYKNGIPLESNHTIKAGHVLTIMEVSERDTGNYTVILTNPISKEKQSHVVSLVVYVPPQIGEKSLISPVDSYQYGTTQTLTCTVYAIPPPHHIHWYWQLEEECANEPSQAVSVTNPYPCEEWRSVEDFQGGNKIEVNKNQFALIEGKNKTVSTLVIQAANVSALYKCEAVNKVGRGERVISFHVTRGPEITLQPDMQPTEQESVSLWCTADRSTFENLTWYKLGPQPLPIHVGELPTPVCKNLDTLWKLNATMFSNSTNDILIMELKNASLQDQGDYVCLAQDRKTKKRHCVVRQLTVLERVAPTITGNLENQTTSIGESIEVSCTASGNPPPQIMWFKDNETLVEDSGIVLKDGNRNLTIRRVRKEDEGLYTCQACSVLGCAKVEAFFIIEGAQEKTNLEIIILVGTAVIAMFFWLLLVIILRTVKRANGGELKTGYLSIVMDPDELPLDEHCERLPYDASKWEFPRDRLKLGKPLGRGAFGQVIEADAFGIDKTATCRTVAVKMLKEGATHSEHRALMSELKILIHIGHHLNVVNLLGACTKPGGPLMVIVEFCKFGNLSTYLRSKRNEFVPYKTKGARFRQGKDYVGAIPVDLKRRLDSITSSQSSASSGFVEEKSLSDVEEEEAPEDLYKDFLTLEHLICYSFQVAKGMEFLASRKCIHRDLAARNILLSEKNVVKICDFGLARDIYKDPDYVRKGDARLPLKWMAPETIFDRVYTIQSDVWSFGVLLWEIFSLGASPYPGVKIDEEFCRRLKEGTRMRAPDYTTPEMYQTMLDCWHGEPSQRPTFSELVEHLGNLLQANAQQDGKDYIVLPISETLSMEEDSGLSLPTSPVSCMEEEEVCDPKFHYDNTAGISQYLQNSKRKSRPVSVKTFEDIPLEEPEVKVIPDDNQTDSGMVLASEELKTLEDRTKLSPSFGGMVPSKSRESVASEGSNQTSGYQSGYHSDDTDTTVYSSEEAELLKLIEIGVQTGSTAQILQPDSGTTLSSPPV

PLK2 (human) = PLK2 (human) (UniProt Q9NYY3)
CDK4 CCND1 (human) = CDK4 CCND1 (human) (UniProt P24385+P11802)
CLK3 (human) = CLK3 (human) (UniProt P49761)
PRKCA (human) = PRKCA (human) (UniProt P17252)
IKBKB (human) = IKBKB (human) (UniProt O14920)
RET (human) = RET (human) (UniProt P07949)
MUSK (human) = MUSK (human) (UniProt O15146)
EPHA5 (human) = EPHA5 (human) (UniProt P54756)
RAF1 (human) = RAF1 (human) (UniProt P04049)
EPHB2 (human) = EPHB2 (human) (UniProt P29323)
STK11 (human) = STK11 (human) (UniProt Q15831)
PKN1 (human) = PKN1 (human) (UniProt Q16512)
PKN1 (human), sequence (Q16512 whole entry, looked up): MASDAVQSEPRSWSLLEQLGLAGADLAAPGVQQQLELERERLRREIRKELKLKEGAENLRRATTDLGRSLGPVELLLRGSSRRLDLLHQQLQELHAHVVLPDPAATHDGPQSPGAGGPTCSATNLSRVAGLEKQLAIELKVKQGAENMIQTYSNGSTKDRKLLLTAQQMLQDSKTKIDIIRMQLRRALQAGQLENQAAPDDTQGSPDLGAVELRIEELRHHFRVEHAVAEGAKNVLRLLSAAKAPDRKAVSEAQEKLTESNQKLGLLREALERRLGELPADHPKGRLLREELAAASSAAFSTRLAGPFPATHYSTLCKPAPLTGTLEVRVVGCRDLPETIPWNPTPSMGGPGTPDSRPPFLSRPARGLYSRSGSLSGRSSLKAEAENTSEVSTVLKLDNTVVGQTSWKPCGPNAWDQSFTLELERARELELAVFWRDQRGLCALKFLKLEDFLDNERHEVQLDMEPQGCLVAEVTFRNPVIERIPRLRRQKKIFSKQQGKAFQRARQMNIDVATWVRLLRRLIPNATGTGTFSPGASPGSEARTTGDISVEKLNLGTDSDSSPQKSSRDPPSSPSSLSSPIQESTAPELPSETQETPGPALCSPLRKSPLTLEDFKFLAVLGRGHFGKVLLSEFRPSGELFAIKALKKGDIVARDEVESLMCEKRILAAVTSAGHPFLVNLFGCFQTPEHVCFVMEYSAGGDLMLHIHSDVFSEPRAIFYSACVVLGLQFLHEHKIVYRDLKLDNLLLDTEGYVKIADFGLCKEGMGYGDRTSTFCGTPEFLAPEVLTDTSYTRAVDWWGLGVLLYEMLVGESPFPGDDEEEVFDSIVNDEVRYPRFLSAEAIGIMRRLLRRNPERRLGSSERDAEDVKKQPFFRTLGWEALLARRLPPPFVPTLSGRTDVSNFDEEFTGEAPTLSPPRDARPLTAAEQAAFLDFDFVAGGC

ADRBK2 (human) = ADRBK2 (human) (UniProt P35626)
NEK11 (human) = NEK11 (human) (UniProt Q8NG66)
IKBKE (human) = IKBKE (human) (UniProt Q14164)
MLTK (human) = MLTK (human) (UniProt Q9NYL2)
MAP4K5 (human) = MAP4K5 (human) (UniProt Q9Y4K4)
FLT1 (human) = FLT1 (human) (UniProt P17948)
INSR (human) = INSR (human) (UniProt P06213)
AKT1 (human) = AKT1 (human) (UniProt P31749)
MAP3K14 (human) = MAP3K14 (human) (UniProt Q99558)
MAP3K14 (human), sequence (Q99558 whole entry, looked up): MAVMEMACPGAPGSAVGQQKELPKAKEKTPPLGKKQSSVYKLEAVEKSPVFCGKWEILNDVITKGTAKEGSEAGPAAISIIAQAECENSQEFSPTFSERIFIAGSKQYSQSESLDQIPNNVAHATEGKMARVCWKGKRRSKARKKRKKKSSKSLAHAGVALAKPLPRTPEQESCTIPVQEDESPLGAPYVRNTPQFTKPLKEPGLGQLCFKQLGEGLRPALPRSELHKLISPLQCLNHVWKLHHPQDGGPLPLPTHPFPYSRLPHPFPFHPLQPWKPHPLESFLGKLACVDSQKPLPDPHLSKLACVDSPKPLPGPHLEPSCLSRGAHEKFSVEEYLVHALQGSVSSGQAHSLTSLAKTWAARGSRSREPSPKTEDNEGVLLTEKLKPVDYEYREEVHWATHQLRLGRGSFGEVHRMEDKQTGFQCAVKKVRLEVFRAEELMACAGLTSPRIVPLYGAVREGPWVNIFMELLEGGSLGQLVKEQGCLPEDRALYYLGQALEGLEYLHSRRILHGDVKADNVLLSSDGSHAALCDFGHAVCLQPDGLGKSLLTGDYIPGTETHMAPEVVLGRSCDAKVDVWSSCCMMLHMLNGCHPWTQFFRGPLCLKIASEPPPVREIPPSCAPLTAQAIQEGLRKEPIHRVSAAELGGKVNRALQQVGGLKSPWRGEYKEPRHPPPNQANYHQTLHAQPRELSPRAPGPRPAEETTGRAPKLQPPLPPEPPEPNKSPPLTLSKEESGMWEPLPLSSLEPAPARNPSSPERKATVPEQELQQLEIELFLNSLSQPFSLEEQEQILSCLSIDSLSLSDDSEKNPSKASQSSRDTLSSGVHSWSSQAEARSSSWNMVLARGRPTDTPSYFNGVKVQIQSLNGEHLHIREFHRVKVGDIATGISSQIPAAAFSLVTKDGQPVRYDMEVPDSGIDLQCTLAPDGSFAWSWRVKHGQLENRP

CSNK1E (human), sequence (P49674 whole entry, looked up): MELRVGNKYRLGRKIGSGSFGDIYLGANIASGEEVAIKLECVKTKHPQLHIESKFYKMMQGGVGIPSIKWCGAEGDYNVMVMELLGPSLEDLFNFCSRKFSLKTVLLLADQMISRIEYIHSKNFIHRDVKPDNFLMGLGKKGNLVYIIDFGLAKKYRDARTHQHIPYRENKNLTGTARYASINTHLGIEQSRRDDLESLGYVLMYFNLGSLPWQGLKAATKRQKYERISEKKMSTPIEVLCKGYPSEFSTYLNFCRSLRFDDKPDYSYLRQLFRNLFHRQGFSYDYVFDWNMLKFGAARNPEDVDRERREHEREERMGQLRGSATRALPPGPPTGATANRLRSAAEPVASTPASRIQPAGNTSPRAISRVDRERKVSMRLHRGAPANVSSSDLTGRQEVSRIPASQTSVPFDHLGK

SMILES: Oc1cccc(-c2nc(N3CCOCC3)c3oc4ncccc4c3n2)c1
- residual activity (CSNK1E (human)): 87.1%
- residual activity (PRKACA (human)): 99.5%
- residual activity (ERBB4 (human)): 97.6%
- residual activity (PAK3 (human)): 97.5%
- residual activity (PASK (human)): 83.8%
- residual activity (PRKD3 (human)): 92.9%
- residual activity (RPS6KA5 KD2 (human)): 86.5%
- residual activity (CAMKK2 (human)): 79.8%
- residual activity (EPHA8 (human)): 93.9%
- residual activity (TSSK2 (human)): 102%
- residual activity (MAPKAPK2 (human)): 97.8%
- residual activity (CSNK1A1 (human)): 87.9%
- residual activity (MAP4K4 (human)): 91.4%
- residual activity (PRKCG (human)): 102%
- residual activity (DYRK3 (human)): 94.9%
- residual activity (CSNK2A2 (human)): 56.2%
- residual activity (PDGFRB (human)): 99.2%
- residual activity (MAP3K7 TAB1 (human)): 97.4%
- residual activity (GRK4 (human)): 102%
- residual activity (MYLK2 (human)): 99%
- residual activity (KDR (human)): 85.9%
- residual activity (PLK2 (human)): 94.7%
- residual activity (CDK4 CCND1 (human)): 102%
- residual activity (CLK3 (human)): 93.1%
- residual activity (PRKCA (human)): 103%
- residual activity (IKBKB (human)): 98.3%
- residual activity (RET (human)): 99.8%
- residual activity (MUSK (human)): 87.8%
- residual activity (EPHA5 (human)): 102%
- residual activity (RAF1 (human)): 79.1%
- residual activity (EPHB2 (human)): 88.6%
- residual activity (STK11 (human)): 86.4%
- residual activity (PKN1 (human)): 101%
- residual activity (ADRBK2 (human)): 110%
- residual activity (NEK11 (human)): 109%
- residual activity (IKBKE (human)): 98.8%
- residual activity (MLTK (human)): 96.2%
- residual activity (MAP4K5 (human)): 82.4%
- residual activity (FLT1 (human)): 83.6%
- residual activity (INSR (human)): 98.6%
- residual activity (AKT1 (human)): 95.3%

SMILES: CCOC(=O)c1c(C)[nH]c(/C=C2\C(=O)Nc3ccccc32)c1C
- residual activity (CSNK1E (human)): 73.7%
- residual activity (PRKACA (human)): 97.3%
- residual activity (ERBB4 (human)): 71.2%
- residual activity (PAK3 (human)): 99.1%
- residual activity (PASK (human)): 91.4%
- residual activity (PRKD3 (human)): 90.1%
- residual activity (RPS6KA5 KD2 (human)): 91.8%
- residual activity (CAMKK2 (human)): 90.8%
- residual activity (EPHA8 (human)): 88.7%
- residual activity (TSSK2 (human)): 95.9%
- residual activity (MAPKAPK2 (human)): 98.6%
- residual activity (CSNK1A1 (human)): 98.6%
- residual activity (MAP4K4 (human)): 64.5%
- residual activity (PRKCG (human)): 91.9%
- residual activity (DYRK3 (human)): 102%
- residual activity (CSNK2A2 (human)): 94.7%
- residual activity (PDGFRB (human)): 69.1%
- residual activity (MAP3K7 TAB1 (human)): 85.8%
- residual activity (GRK4 (human)): 82.9%
- residual activity (MAP3K14 (human)): 118%
- residual activity (MYLK2 (human)): 74.7%
- residual activity (KDR (human)): 93.2%
- residual activity (PLK2 (human)): 102%
- residual activity (CDK4 CCND1 (human)): 103%
- residual activity (CLK3 (human)): 100%
- residual activity (IKBKB (human)): 101%
- residual activity (RET (human)): 40.8%
- residual activity (MUSK (human)): 88.7%
- residual activity (EPHA5 (human)): 91.9%
- residual activity (RAF1 (human)): 89.6%
- residual activity (EPHB2 (human)): 95.4%
- residual activity (STK11 (human)): 85.2%
- residual activity (PKN1 (human)): 89.6%
- residual activity (ADRBK2 (human)): 94.7%
- residual activity (NEK11 (human)): 96.6%
- residual activity (IKBKE (human)): 93.5%
- residual activity (MLTK (human)): 92.7%
- residual activity (MAP4K5 (human)): 84.3%
- residual activity (FLT1 (human)): 79%
- residual activity (INSR (human)): 90.6%
- residual activity (AKT1 (human)): 96.1%

SMILES: O=C1Nc2ccc(Cl)cc2/C1=C/c1cc(Cl)c(O)c(Cl)c1
- residual activity (CSNK1E (human)): 66.6%
- residual activity (PRKACA (human)): 101%
- residual activity (ERBB4 (human)): 94.2%
- residual activity (PAK3 (human)): 94.3%
- residual activity (PASK (human)): 70%
- residual activity (PRKD3 (human)): 80.7%
- residual activity (RPS6KA5 KD2 (human)): 86.1%
- residual activity (CAMKK2 (human)): 51.5%
- residual activity (EPHA8 (human)): 91.5%
- residual activity (TSSK2 (human)): 94.4%
- residual activity (MAPKAPK2 (human)): 100%
- residual activity (CSNK1A1 (human)): 92.6%
- residual activity (MAP4K4 (human)): 4.48%
- residual activity (DYRK3 (human)): 91.8%
- residual activity (CSNK2A2 (human)): 33.3%
- residual activity (PDGFRB (human)): 76.9%
- residual activity (MAP3K7 TAB1 (human)): 86.8%
- residual activity (GRK4 (human)): 108%
- residual activity (MAP3K14 (human)): 111%
- residual activity (MYLK2 (human)): 71.5%
- residual activity (KDR (human)): 86.1%
- residual activity (PLK2 (human)): 95.4%
- residual activity (CDK4 CCND1 (human)): 94.7%
- residual activity (CLK3 (human)): 90.9%
- residual activity (PRKCA (human)): 105%
- residual activity (IKBKB (human)): 93.6%
- residual activity (RET (human)): 80.4%
- residual activity (MUSK (human)): 65.5%
- residual activity (EPHA5 (human)): 99.4%
- residual activity (RAF1 (human)): 6.93%
- residual activity (EPHB2 (human)): 90.9%
- residual activity (STK11 (human)): 93.1%
- residual activity (PKN1 (human)): 93%
- residual activity (ADRBK2 (human)): 102%
- residual activity (NEK11 (human)): 104%
- residual activity (IKBKE (human)): 94.7%
- residual activity (MLTK (human)): 77.4%
- residual activity (MAP4K5 (human)): 75.9%
- residual activity (FLT1 (human)): 85%
- residual activity (INSR (human)): 99.2%
- residual activity (AKT1 (human)): 97.9%

SMILES: COc1ccc2c(c[n+](C)c3c4cc5c(cc4ccc23)OCO5)c1OC
- residual activity (CSNK1E (human)): 90.7%
- residual activity (PRKACA (human)): 100%
- residual activity (ERBB4 (human)): 99.9%
- residual activity (PAK3 (human)): 96.6%
- residual activity (PASK (human)): 91.1%
- residual activity (PRKD3 (human)): 99.3%
- residual activity (RPS6KA5 KD2 (human)): 83.3%
- residual activity (CAMKK2 (human)): 98.2%
- residual activity (EPHA8 (human)): 100%
- residual activity (MAPKAPK2 (human)): 103%
- residual activity (CSNK1A1 (human)): 103%
- residual activity (MAP4K4 (human)): 84.9%
- residual activity (PRKCG (human)): 87.2%
- residual activity (DYRK3 (human)): 101%
- residual activity (CSNK2A2 (human)): 89.7%
- residual activity (PDGFRB (human)): 93.5%
- residual activity (MAP3K7 TAB1 (human)): 100%
- residual activity (GRK4 (human)): 94.8%
- residual activity (MAP3K14 (human)): 88.1%
- residual activity (MYLK2 (human)): 95.3%
- residual activity (KDR (human)): 104%
- residual activity (PLK2 (human)): 97.6%
- residual activity (CDK4 CCND1 (human)): 87.5%
- residual activity (CLK3 (human)): 95.2%
- residual activity (PRKCA (human)): 78.9%
- residual activity (IKBKB (human)): 103%
- residual activity (RET (human)): 97%
- residual activity (MUSK (human)): 98.2%
- residual activity (EPHA5 (human)): 94.6%
- residual activity (RAF1 (human)): 96.7%
- residual activity (EPHB2 (human)): 97.1%
- residual activity (STK11 (human)): 82.1%
- residual activity (PKN1 (human)): 101%
- residual activity (ADRBK2 (human)): 88.4%
- residual activity (NEK11 (human)): 106%
- residual activity (IKBKE (human)): 101%
- residual activity (MLTK (human)): 94.7%
- residual activity (MAP4K5 (human)): 89.3%
- residual activity (FLT1 (human)): 88.8%
- residual activity (INSR (human)): 94.9%
- residual activity (AKT1 (human)): 97.6%
